The text below walks through data of US20250127799A1, “DRUG CONJUGATES FOR BONE MARROW PROTECTION” (priority 2023, published 2025).

Ends that are not written are not given here. Peptide text beside a SMILES is read from it. * marks the point of attachment. X1 = O=C(CCCCCN1C(=O)CC(*)C1=O)NCCCC(O)(P(=O)(O)O)P(=O)(O)O; X2 = O=P(O)(O)SCCNCCCN* Bounds are passed on as bounds.

For data set [1], the system named is A549 non-small cell lung cancer cells. Kind of data set: CCK-8 cellular proliferation assay, co-culture with chemodrugs. The class given is cell-based. Particulars: for cellular proliferation compared to Non-treatment Control: 72 h. As for the experimental part:
In this exemplary representative experiment, a CCK-8 cellular proliferation assay was conducted for A549 non-small cell lung cancer cells exposed to the Carboplatin with or without protective agents.
In another exemplary representative chemoprotection experiment, Paclitaxel was used instead of Carboplatin in the CCK-8 cellular proliferation assay for A549 cells.

The conditions of data set [2]: in vivo; cited from earlier work.
For data set [3], the system named is human bone marrow mononuclear cells. The data set is described as follows: Colony forming unit assay, protection of cells exposed to carboplatin. The class given is cell-based. Particulars: for CFU counts normalized to untreated cells: 50 μM carboplatin for 4 h. The method, then:
In this exemplary representative chemoprotection experiment, a colony forming unit assay was conducted for bone marrow mononuclear cells exposed to carboplatin with or without the pre-treatment with protective agents. In brief, 1.1×10^4 human bone marrow mononuclear cells were suspended in 300 μL culture medium and mixed with 30 μL solutions of PBS (control), Amifostine, WR1065, or Conjugate (with the peptide sequence of CFLG (SEQ ID NO: 18)) at various concentrations. After 2 h of incubation, cells were washed and resuspended in 300 μL culture medium, followed by incubation with 50 μM carboplatin for 4 h. Next, cells were washed and resuspended in the colony forming medium for 14 days. The number of resultant CFU in each group was then determined, and the results were normalized to the group of cells without any treatment. […] In another exemplary representative chemoprotection experiment, Amifostine and Conjugate with the peptide sequence of CFLG (SEQ ID NO: 18) with concentrations ranging from 50 to 1,000 μM were evaluated.

In data set [4] the test system is human HSPCs. The data set is described as follows: In vitro radioprotection for human HSPCs (CCK8 viability). Particulars: for cellular viability compared to the group receiving no treatment at the same exposure dose: 2-8 Gy; for cellular viability: 50 μM for 4 h. The method, then: In this exemplary representative experiment, human HSPCs were seeded in a 96-well plate at a density of 2.5×10^4 per well (N=6 for each group). Next, cells were treated with a protective drug conjugate having a peptide sequence of CAPIGIAL (SEQ ID NO: 68) with acetylation at the N-terminus (e.g., AcCAPIGIAL; SEQ ID NO: 80) or amifostine alone at the final concentrations ranging from 0 to 100 μM for 4 h, followed by exposure to y-radiation (Cs-137) at 3 or 8 Gy (0.6 Gy/min). Two hours after the irradiation, the culture medium was replaced by a fresh medium. After 24 h of further incubation, a CCK8 assay was applied to evaluate the cell viability.
In this exemplary representative experiment, human HSPCs were seeded in a 96-well plate at a density of 2.5×10^4 per well (N=6 for each group).

Data set [5] deals with Hs578T triple-negative breast cancer cells. Kind of data set: CCK-8 cellular proliferation assay, co-culture with chemodrugs. Particulars: for cellular proliferation compared to Non-treatment Control: 72 h. The class given is cell-based. The method, then:
In this exemplary representative experiment, a CCK-8 cellular proliferation assay was conducted for Hs578T triple-negative breast cancer cells exposed to the Carboplatin with or without protective agents.
In another exemplary representative chemoprotection experiment, Paclitaxel was used instead of Carboplatin in the CCK-8 cellular proliferation assay for Hs578T cells.
(In general: Formazan colour is commonly taken as a measure of viable cells.)

Data set [6] concerns CD2F1 male mice. The data set is described as follows: In vivo radioprotective effects: 30-day survival after Cobalt-60 gamma irradiation. Particulars: for survival rate: 12 h before 9.1 Gy. As for the experimental part:
(§1) CD2F1 male mice (N=16) were subcutaneously (sc) injected with a single dose of two different conjugates. For one protective drug conjugate (Conjugate 1), the tested doses were 200, 400, and 800 mg/kg. The structure of Conjugate 1 included amifostine as the protective drug, alendronate as the bone-targeting ligand, and a protease-cleavable peptide having the sequence of CKPLGLWAL (SEQ ID NO: 33) with acetylation at the N-terminus (e.g., AcCKPLGLWAL; SEQ ID NO: 74). […] The irradiated mice were monitored for survival for 30 days post-irradiation. […] For the vehicle control group, the mortalities of mice occurred during 8 to 17 days post-irradiation, and the final survival rate was 6.25% (1 out of 16 survived), indicating significant mortality by gamma-irradiation.
For another protective drug conjugate (Conjugate 2), the tested doses were 250, 500, 600, and 700 mg/kg, and the irradiation was conducted at 24 h post-drug administration. The structure of Conjugate 2 included amifostine as the protective drug, alendronate as the bone-targeting ligand, and a protease-cleavable peptide having the sequence of CPLGLYAL (SEQ ID NO: 29) with acetylation at the N-terminus (e.g., AcCPLGLYAL; SEQ ID NO: 76).
as §1, with “a” for “two different conjugates. For one”, “1), and” for “1),”, “250, 300,” for “200, 400,”, “350” for “800”, “0% (0” for “6.25% (1”
as §1, with “CD2F1 male mice (N=16) were subcutaneously (sc) injected CD2F1” for “CD2F1”, “a” for “two different conjugates. For one”, “1), and” for “1),”, “250, 300,” for “200, 400,”, “350” for “800”
CD2F1 male mice (N=16) were subcutaneously (sc) injected CD2F1 male mice (N=16) were subcutaneously (sc) injected with a single dose of a protective drug conjugate (Conjugate 1), and the tested doses were 50, 100, and 200 mg/kg. The structure of Conjugate 1 included amifostine as the protective drug, alendronate as the bone-targeting ligand, and a protease-cleavable peptide having the sequence of CKPLGLWAL (SEQ ID NO: 33) with acetylation at the N-terminus (e.g., AcCKPLGLWAL; SEQ ID NO: 74). […] The irradiated mice were monitored for survival for […] post-irradiation. […] For the vehicle control group, the mortalities of mice occurred during 8 to 17 days post-irradiation, and the final survival rate was 0% (0 out of 16 survived), indicating significant mortality by gamma-irradiation.
CD2F1 male mice (N=16) were subcutaneously (sc) injected CD2F1 male mice (N=16) were subcutaneously (sc) injected with a single dose of a protective drug conjugate, i.e., Conjugate 3. The tested doses were 250, 300, and 350 mg/kg. […]

Data set [7] in a line: Conjugate cleavage in fresh bone marrow aspirate (HPLC). The class given is in vitro ADME. Particulars: human bone marrow aspirate, same donor, 37° C., up to 6 h. The method, then: The proteolytic cleavage of conjugates determines the therapeutic window, which is controlled by the specific peptide sequence. In a representative cleavage experiment, a […] stock solution of a conjugate (30 mg/mL) was mixed with 90 μL of fresh bone marrow aspirate, followed by incubation at 37° C. for up to 6 h. A 10 μL sample was taken every hour, diluted in 90 μL acetonitrile to precipitate proteins and extract conjugates and cleavage products. The concentrations of the conjugates in samples were determined by HPLC, normalized, and presented as the cleavage ratio.

The target of data set [8] is matrix metalloproteinase 9 (MMP9) (Homo sapiens, UniProt P14780). Kind of data set: In vitro matrix metalloproteinase-based conjugate cleavage. The class given is biochemical. The settings on record: isolated enzyme, MMP9, 37° C., up to 20 h, read-out: T1/2 of cleavage (converted). The method, then:
In this exemplary representative cleavage experiment, a 90 μL stock solution of protective drug conjugate (1 mg/mL) was mixed with 2 μL of matrix metalloproteinase 9 (MMP9) (10 unit/μL) and 8.2 μL of 50 mM CaCl2 solution, followed by incubation at 37° C. for up to 20 h. A 10 μL sample was taken at 0.3, 1, 2, 4, 9, or 20 h for the HPLC analysis. Three conjugates having different peptide sequences (Conjugates 1-3) were used in this test: Conjugate 1-peptide sequence of CPLSLYAL (SEQ ID NO: 65); Conjugate 2-peptide sequence of CPLSLYSL (SEQ ID NO: 66); and Conjugate 3-peptide sequence of CPLGLAL (SEQ ID NO: 67). The concentrations of the conjugate residual in samples were normalized and presented as cleavage ratios.

Chain of matrix metalloproteinase 9 (MMP9) (P14780 94-707, species assumed): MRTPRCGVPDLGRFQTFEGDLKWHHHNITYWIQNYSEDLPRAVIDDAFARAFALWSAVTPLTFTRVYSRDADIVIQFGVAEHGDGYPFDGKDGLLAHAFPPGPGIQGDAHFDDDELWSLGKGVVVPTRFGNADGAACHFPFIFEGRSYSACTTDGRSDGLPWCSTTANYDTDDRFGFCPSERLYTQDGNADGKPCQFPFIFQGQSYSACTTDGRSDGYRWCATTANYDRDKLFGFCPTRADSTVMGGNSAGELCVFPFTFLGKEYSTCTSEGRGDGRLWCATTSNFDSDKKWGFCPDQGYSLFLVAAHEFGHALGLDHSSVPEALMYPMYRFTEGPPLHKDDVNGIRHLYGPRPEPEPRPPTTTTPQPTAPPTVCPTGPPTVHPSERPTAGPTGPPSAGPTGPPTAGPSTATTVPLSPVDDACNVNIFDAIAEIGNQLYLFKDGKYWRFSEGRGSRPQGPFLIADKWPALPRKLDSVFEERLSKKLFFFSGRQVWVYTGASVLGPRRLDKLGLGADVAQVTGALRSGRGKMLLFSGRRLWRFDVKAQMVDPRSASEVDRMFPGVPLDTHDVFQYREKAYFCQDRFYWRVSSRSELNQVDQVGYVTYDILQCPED

As for `NCCCNCCSP(=O)(O)O` [Amifostine], in data set [1] (10 to 200 μM), the “toxicity to A549 cells” value is recorded as “non-toxic”. In addition, in data set [2], the “bone marrow residence time” value is below 30 min and the pharmacokinetic circulating time was below 8 min. The “mitigation of Carboplatin-caused CFU reduction” value in data set [3] (pretreatment 50 to 1,000 μM, dose-dependent (FIG. 8B)) is “significantly mitigated”. For the same compound, the “cellular viability compared to the group receiving no treatment at the same exposure dose” value in data set [4] (50 μM) is reported as “much higher cellular viability”. The “toxicity to Hs578T cells” value in data set [5] (10 to 200 μM) is listed as “non-toxic”.

`N.N.O=C([O-])C1(C(=O)[O-])CCC1.[Pt+2]` [Carboplatin]: the “cellular proliferation compared to Non-treatment Control” value was around 30% in data set [1] (0.1 mM Carboplatin) and around 35% in data set [5] (0.1 mM Carboplatin). In addition, the “CFU counts normalized to untreated cells” value was around 40% in data set [3] (no protective agent (FIG. 8A)) and around 30% in data set [3] (no protective agent (FIG. 8B)).

Consider `CC(=O)N[C@@H](CSC1CC(=O)N(CCCCCC(=O)NCCCC(O)(P(=O)(O)O)P(=O)(O)O)C1=O)C(=O)N[C@@H](CCCCN)C(=O)N1CCC[C@H]1C(=O)N[C@@H](CC(C)C)C(=O)NCC(=O)N[C@@H](CC(C)C)C(=O)N[C@@H](Cc1c[nH]c2ccccc12)C(=O)N[C@@H](C)C(=O)N[C@@H](CC(C)C)C(=O)NCCCNCCSP(=O)(O)O` (stereo partly shown) [Conjugate 1] (Ac-C(X1)KPLGLWAL-X2), for which the survival rate in data set [6] (50 mg/kg sc) was determined as 75%; in data set [6] (100 mg/kg sc), 93.75%; in data set [6] (200 mg/kg sc), 93.75%. The 30-day survival rate in data set [6] (200 mg/kg sc, 6 h before 9.2 Gy) was 68.75%; in data set [6] (250 mg/kg sc, 9 h before 9.2 Gy) it was 75%; in data set [6] (250 mg/kg sc, 12 h before 9.2 Gy), 100%; in data set [6] (300 mg/kg sc, 9 h before 9.2 Gy), 87.25%; in data set [6] (300 mg/kg sc, 12 h before 9.2 Gy), 87.5%; in data set [6] (350 mg/kg sc, 9 h before 9.2 Gy) it was 56.25%. Besides, the 30-day survival rate in data set [6] (350 mg/kg sc, 12 h before 9.2 Gy) is given as 81.25%; in data set [6] (400 mg/kg sc, 6 h before 9.2 Gy), 81.25%; in data set [6] (800 mg/kg sc, 6 h before 9.2 Gy), 68.75%. Further, the “time to reach 50% conjugate cleavage” value in data set [7] is recorded as 2.4 h. The half-life at 0.898 mg/mL in data set [8] is around 120 min.

For the compound `CC(=O)O[C@H]1C(=O)[C@@]2(C)[C@H]([C@H](OC(=O)c3ccccc3)[C@]3(O)C[C@H](OC(=O)[C@H](O)[C@@H](NC(=O)c4ccccc4)c4ccccc4)C(C)=C1C3(C)C)[C@]1(OC(C)=O)CO[C@@H]1C[C@@H]2O` [Paclitaxel], the “cellular proliferation compared to Non-treatment Control” value in data set [1] (5 nM Paclitaxel) is reported as around 30%; in data set [5] (5 nM Paclitaxel), around 35%.

Take “Conjugate (AcCAPIGIAL): protective drug conjugate having peptide sequence CAPIGIAL with acetylation at the N-terminus (SEQ ID NO: 80) (Ac-CAPIGIAL; also: amifostine conjugate (site not given here))”: the cellular viability in data set [4] (then 2 Gy (FIG. 6B)) is given as 91.9%; in data set [4] (then 8 Gy (FIG. 6A)) it was 61.1%; in data set [4] (then 8 Gy (FIG. 6B)), 59.6%. Further, in data set [4] (50 μM), the “cellular viability compared to the group receiving no treatment at the same exposure dose” value is listed as “much higher cellular viability”. In addition, in data set [4] (50 μM, 8 Gy), the “cellular viability relative to the control group” value was around 2.3 fold. In addition, the “difference in cellular viability between conjugate and amifostine groups” value in data set [4] (50 μM, any exposure dose from 2 Gy to 8 Gy) is listed as “no statistical difference”. For the same compound, the “concentration of maximum radioprotective efficacy” value in data set [4] (8 Gy, 0-100 μM tested) was 50 µM. For the same compound, the radioprotective effect result in data set [4] (50 or 100 μM, 3 Gy) was “significant radioprotective effect”.
